Patent US6900231B2, “Aminopyridyl-substituted phenyl acetamides as protease inhibitors” (3-Dimensional Pharmaceuticals, Inc., priority 2000, dated 2005)
Structures can show the parent of a compound that is named as a salt.

Molecular target: T1, human α-thrombin (Homo sapiens, UniProt P00734)
T1 construct: Human α-thrombin, human factor Xa and human plasmin were obtained from Enzyme Research Laboratories; purchased Enzyme Research Laboratories (South Bend, Ind.)
Test: In vitro inhibition of purified enzymes: Ki determination, hydrolysis of peptide p-nitroanilide substrate by thrombin
Format: biochemical
Text: Reagents: All buffer salts were obtained from Sigma Chemical Company (St. Louis, Mo.), and were of the highest purity available.
Human α-thrombin, human factor Xa and human plasmin were obtained from Enzyme Research Laboratories (South Bend, Ind.). Bovine α-chymotrypsin (Sigma C4129), bovine trypsin (Sigma T8642) and human kidney cell urokinase (Sigma U5004) were obtained from Sigma. Human leukocyte elastase was obtained from Elastin Products (Pacific, Mo.).
Ki Determinations: All assays are based on the ability of the test compound to inhibit the enzyme catalyzed hydrolysis of a peptide p-nitroanilide substrate. […] The final concentrations for each of the substrates is listed below. In general, substrate concentrations are lower than the experimentally determined value for Km. Test compounds are prepared as a 1.0 mg/ml solution in DMSO. […]
Data corresponding to less than 10% of the total substrate hydrolysis were used in the calculations. The ratio of the velocity (rate of change in absorbance as a function of time) for a sample containing no test compound is divided by the velocity of a sample containing test compound, and is plotted as a function of test compound concentration. The data are fit to a linear regression, and the value of the slope of the line calculated. The inverse of the slope is the experimentally determined Ki value. […]

## Cc1nc(N)ccc1CNC(=O)Cc1c(Cl)ccc(NCC(F)(F)c2ccc(F)c3ccccc23)c1F [Example 5, N-[(6-Amino-2-methyl(3-pyridyl))methyl]-2-(3-{[2,2-difluoro-2-(4-fluoronaphthyl)ethyl]amino}-6-chloro-2-fluorophenyl)acetamide Hydrochloride Salt]
  Ki: 2.8 nM
